Patent US9932340B2, “Substituted indoles” (AbbVie Inc., priority 2014, dated 2018)

Biological target: SUV420H1 enzyme (Homo sapiens, UniProt Q4FZB7)
Assay: TR-FRET SAH SUV420H1 enzyme inhibition assay
Format: biochemical
Details: Histone Peptide H4(8-30)me1 and SAM, overnight at room temp, TR-FRET detection of SAH, read-out: TR-FRET SAH_SUV420H1 IC50
Method in brief: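 SUV420H1 (90 nM) preincubated 30 min with compound (3-fold dilutions, 50 to 0.00075 μM), then H4(8-30)me1 peptide 5 nM and SAM 4 nM added, overnight at room temp. SAH product detected by TR-FRET with Tb anti-SAH antibody and Oregon Green-SAH in RIPA buffer, 4 h; IC50 from Hill fit, asymptotes fixed 0-100%.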

Chain of SUV420H1 enzyme (Q4FZB7 whole entry): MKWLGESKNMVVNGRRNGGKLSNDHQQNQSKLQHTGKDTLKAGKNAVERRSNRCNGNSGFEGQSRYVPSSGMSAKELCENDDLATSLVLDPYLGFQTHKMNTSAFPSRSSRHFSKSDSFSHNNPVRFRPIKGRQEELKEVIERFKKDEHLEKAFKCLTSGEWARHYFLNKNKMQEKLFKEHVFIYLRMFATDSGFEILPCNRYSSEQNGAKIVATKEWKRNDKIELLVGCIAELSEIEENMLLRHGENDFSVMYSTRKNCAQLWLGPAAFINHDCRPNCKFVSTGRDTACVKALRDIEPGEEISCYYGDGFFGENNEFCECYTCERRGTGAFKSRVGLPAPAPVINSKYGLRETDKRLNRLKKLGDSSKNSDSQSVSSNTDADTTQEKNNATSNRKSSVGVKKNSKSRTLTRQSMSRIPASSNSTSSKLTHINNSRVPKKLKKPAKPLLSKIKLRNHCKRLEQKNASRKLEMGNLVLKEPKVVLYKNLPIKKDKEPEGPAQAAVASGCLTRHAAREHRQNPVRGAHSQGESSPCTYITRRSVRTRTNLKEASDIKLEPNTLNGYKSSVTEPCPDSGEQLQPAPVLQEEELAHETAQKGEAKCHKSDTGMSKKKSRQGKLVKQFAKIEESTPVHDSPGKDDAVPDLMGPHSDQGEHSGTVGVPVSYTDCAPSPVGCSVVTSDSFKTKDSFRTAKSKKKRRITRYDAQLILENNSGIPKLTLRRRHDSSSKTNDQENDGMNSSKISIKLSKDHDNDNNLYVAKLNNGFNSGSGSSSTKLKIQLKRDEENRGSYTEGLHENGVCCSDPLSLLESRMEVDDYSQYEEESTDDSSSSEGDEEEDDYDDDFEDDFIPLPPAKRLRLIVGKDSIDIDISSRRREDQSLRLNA

| SMILES | IC50 [nM] |
| --- | --- |
| COc1cc(C#N)ccc1CNCc1cc2cc(Cl)cc(Cn3cnc4c(N)ncnc43)c2[nH]1 [Example 311, 4-{[({7-[(6-amino-9H-purin-9-yl)methyl]-5-chloro-1H-indol-2-yl}methyl)amino]methyl}-3-methoxybenzonitrile] | 3240 |
| CC(=O)Nc1ccc(C(=O)NCc2cc3cc(Cl)cc(Cn4cnc5c(N)ncnc54)c3[nH]2)cc1 [Example 313, 4-(acetylamino)-N-({7-[(6-amino-9H-purin-9-yl)methyl]-5-chloro-1H-indol-2-yl}methyl)benzamide] | > 50000 |
| Nc1ncnc2c1ncn2Cc1cc(Cl)cc2cc(CNC(=O)C3CCCCC3)[nH]c12 [Example 128, N-({7-[(6-amino-9H-purin-9-yl)methyl]-5-chloro-1H-indol-2-yl}methyl)cyclohexanecarboxamide] | 3340 |
| Nc1ncnc2c1ncn2Cc1cc(Cl)cc2cc(CNC(=O)c3ccsc3)[nH]c12 [Example 145, N-({7-[(6-amino-9H-purin-9-yl)methyl]-5-chloro-1H-indol-2-yl}methyl)thiophene-3-carboxamide] | 2400 |
| Cc1cc(C#N)ccc1C(=O)NCc1cc2cc(C3=CCC(F)(F)CC3)cc(Cn3cnc4c(N)ncnc43)c2[nH]1 [Example 306, N-({7-[(6-amino-9H-purin-9-yl)methyl]-5-(4,4-difluorocyclohex-1-en-1-yl)-1H-indol-2-yl}methyl)-4-cyano-2-methylbenzamide] | 56.4 |
| Cc1cc(C(=O)NCc2cc3cc(C4=CCC(F)(F)CC4)cc(Cn4cnc5c(N)ncnc54)c3[nH]2)c(C)nn1 [Example 236, N-({7-[(6-amino-9H-purin-9-yl)methyl]-5-(4,4-difluorocyclohex-1-en-1-yl)-1H-indol-2-yl}methyl)-3,6-dimethylpyridazine-4-carboxamide] | 33.8 |
| Nc1ncnc2c1ncn2Cc1cc(Cl)cc2cc(CNC(=O)c3ccc[nH]3)[nH]c12 [Example 146, N-({7-[(6-amino-9H-purin-9-yl)methyl]-5-chloro-1H-indol-2-yl}methyl)-1H-pyrrole-2-carboxamide] | 14200 |
| C=C(C)c1ccc(Cn2cnc3c(N)ncnc32)c2[nH]c(CN)cc12 [Example 65, 9-{[2-(aminomethyl)-4-(prop-1-en-2-yl)-1H-indol-7-yl]methyl}-9H-purin-6-amine] | 5080 |
| Nc1ncnc2c1ncn2Cc1cc(Cl)cc2cc(CNC(=O)c3ccc4occc4c3)[nH]c12 [Example 355, N-({7-[(6-amino-9H-purin-9-yl)methyl]-5-chloro-1H-indol-2-yl}methyl)-1-benzofuran-5-carboxamide] | 4870 |
| Nc1ncnc2c1ncn2Cc1cc(Cl)cc2cc(CNC(=O)c3cnn4c3CCCC4)[nH]c12 [Example 192, N-({7-[(6-amino-9H-purin-9-yl)methyl]-5-chloro-1H-indol-2-yl}methyl)-4,5,6,7-tetrahydropyrazolo[1,5-a]pyridine-3-carboxamide] | 2140 |
| C=Cc1ccc2cc(CN)[nH]c2c1Cn1cnc2c(N)ncnc21 [Example 59, 9-{[2-(aminomethyl)-6-ethenyl-1H-indol-7-yl]methyl}-9H-purin-6-amine] | 7510 |
| Cc1noc(C)c1C(=O)NCc1cc2cc(-c3ccc(S(N)(=O)=O)cc3)cc(Cn3cnc4c(N)ncnc43)c2[nH]1 [Example 166, N-({7-[(6-amino-9H-purin-9-yl)methyl]-5-(4-sulfamoylphenyl)-1H-indol-2-yl}methyl)-3,5-dimethyl-1,2-oxazole-4-carboxamide] | 88.9 |
| Cc1cc(C#N)ccc1C(=O)NCc1cc2cc(C3=CCN(C(=O)OC(C)(C)C)CC3)cc(Cn3cnc4c(N)ncnc43)c2[nH]1 [Example 308] | 50 |
| Nc1ncnc2c1ncn2Cc1cc(Cl)cc2cc(CNCc3ccc(Cl)c(Cl)c3)[nH]c12 [Example 213, 9-[(5-chloro-2-{[(3,4-dichlorobenzyl)amino]methyl}-1H-indol-7-yl)methyl]-9H-purin-6-amine] | 2760 |

Other lines, results leading:

| IC50 [nM] | SMILES |
| --- | --- |
| 7270 | Nc1ncnc2c1ncn2Cc1cc(Cl)cc2cc(CNC(=O)c3cnc4[nH]ccc4c3Cl)[nH]c12 [Example 348, N-({7-[(6-amino-9H-purin-9-yl)methyl]-5-chloro-1H-indol-2-yl}methyl)-4-chloro-1H-pyrrolo[2,3-b]pyridine-5-carboxamide] |
| 321 | CS(=O)(=O)c1ccc(-c2cc(Cn3cnc4c(N)ncnc43)c3[nH]c(CN)cc3c2)cc1 [Example 37, 9-({2-(aminomethyl)-5-[4-(methylsulfonyl)phenyl]-1H-indol-7-yl}methyl)-9H-purin-6-amine] |
| 3430 | Cc1cnc(C(=O)NCc2cc3cc(Cl)cc(Cn4cnc5c(N)ncnc54)c3[nH]2)cn1 [Example 205, N-({7-[(6-amino-9H-purin-9-yl)methyl]-5-chloro-1H-indol-2-yl}methyl)-5-methylpyrazine-2-carboxamide] |
| 2770 | Nc1ncnc2c1ncn2Cc1cc(Cl)cc2cc(CNC(=O)c3cccc(F)c3)[nH]c12 [Example 224, N-({7-[(6-amino-9H-purin-9-yl)methyl]-5-chloro-1H-indol-2-yl}methyl)-3-fluorobenzamide] |
| 14100 | Nc1ncnc2c1ncn2Cc1cc(Cl)cc2cc(CNC(=O)[C@@H]3CCC(=O)N3)[nH]c12 [Example 117, (2S)—N-({7-[(6-amino-9H-purin-9-yl)methyl]-5-chloro-1H-indol-2-yl}methyl)-5-oxopyrrolidine-2-carboxamide] |
| > 50000 | Nc1ncnc2c1ncn2Cc1cccc2c(Br)c[nH]c12 [Example 1, 9-[(3-bromo-1H-indol-7-yl)methyl]-9H-purin-6-amine] |
| 866 | NCc1cc2cc(-c3cccnc3)cc(Cn3cnc4c(N)ncnc43)c2[nH]1 [Example 20, 9-{[2-(aminomethyl)-5-(pyridin-3-yl)-1H-indol-7-yl]methyl}-9H-purin-6-amine] |
| 5980 | COc1ccccc1CC(=O)NCc1cc2cc(Cl)cc(Cn3cnc4c(N)ncnc43)c2[nH]1 [Example 298, N-({7-[(6-amino-9H-purin-9-yl)methyl]-5-chloro-1H-indol-2-yl}methyl)-2-(2-methoxyphenyl)acetamide] |
| > 50000 | Nc1ncnc2c1ncn2Cc1cc(Cl)cc2cc(CNC(=O)c3ccccc3F)[nH]c12 [Example 225, N-({7-[(6-amino-9H-purin-9-yl)methyl]-5-chloro-1H-indol-2-yl}methyl)-2-fluorobenzamide] |
| 252 | NCc1cc2cc(-c3ccc(S(N)(=O)=O)cc3)cc(Cn3cnc4c(N)ncnc43)c2[nH]1 [Example 29, 4-{2-(aminomethyl)-7-[(6-amino-9H-purin-9-yl)methyl]-1H-indol-5-yl}benzenesulfonamide] |
| 970 | CC(C)n1ncc2cc(C(=O)NCc3cc4cc(Cl)cc(Cn5cnc6c(N)ncnc65)c4[nH]3)cnc21 [Example 372, N-({7-[(6-amino-9H-purin-9-yl)methyl]-5-chloro-1H-indol-2-yl}methyl)-1-(propan-2-yl)-1H-pyrazolo[3,4-b]pyridine-5-carboxamide] |
| 2230 | Nc1ncnc2c1ncn2Cc1cc(Cl)cc2cc(CNC(=O)C3CCOCC3)[nH]c12 [Example 126, N-({7-[(6-amino-9H-purin-9-yl)methyl]-5-chloro-1H-indol-2-yl}methyl)tetrahydro-2H-pyran-4-carboxamide] |
| 41.9 | CC(=O)N1CCC=C(c2cc(Cn3cnc4c(N)ncnc43)c3[nH]c(CNC(=O)c4ccc(C#N)cc4Cl)cc3c2)C1 [Example 280] |
| 354 | CN(C)C(=O)c1ccc(-c2cc(Cn3cnc4c(N)ncnc43)c3[nH]c(CN)cc3c2)cc1 [Example 47, 4-{2-(aminomethyl)-7-[(6-amino-9H-purin-9-yl)methyl]-1H-indol-5-yl}-N,N-dimethylbenzamide] |
| 130 | Cc1noc(C)c1C(=O)NCc1cc2cc(-c3cccc(C(=O)N4CCOCC4)c3)cc(Cn3cnc4c(N)ncnc43)c2[nH]1 [Example 180, N-({7-[(6-amino-9H-purin-9-yl)methyl]-5-[3-(morpholin-4-ylcarbonyl)phenyl]-1H-indol-2-yl}methyl)-3,5-dimethyl-1,2-oxazole-4-carboxamide] |
| 13200 | CCNc1ccccc1C(=O)NCc1cc2cc(Cl)cc(Cn3cnc4c(N)ncnc43)c2[nH]1 [Example 310, N-({7-[(6-amino-9H-purin-9-yl)methyl]-5-chloro-1H-indol-2-yl}methyl)-2-(ethylamino)benzamide] |
| 49.2 | Cc1cc(C(=O)NCc2cc3cc(C4=CCNCC4)cc(Cn4cnc5c(N)ncnc54)c3[nH]2)c(C)nn1 [Example 235, N-({7-[(6-amino-9H-purin-9-yl)methyl]-5-(1,2,3,6-tetrahydropyridin-4-yl)-1H-indol-2-yl}methyl)-3,6-dimethylpyridazine-4-carboxamide] |
| 18200 | CC(C)(C)CC(=O)NCc1cc2cc(Cl)cc(Cn3cnc4c(N)ncnc43)c2[nH]1 [Example 104, N-({7-[(6-amino-9H-purin-9-yl)methyl]-5-chloro-1H-indol-2-yl}methyl)-3,3-dimethylbutanamide] |
| 3630 | Cc1ccc(CNCc2cc3cc(Cl)cc(Cn4cnc5c(N)ncnc54)c3[nH]2)cc1 [Example 241, 9-[(5-chloro-2-{[(4-methylbenzyl)amino]methyl}-1H-indol-7-yl)methyl]-9H-purin-6-amine] |
| 98.5 | Nc1ncnc2c1ncn2Cc1cc(Cl)cc2cc(CNC(=O)c3cnc4ccsc4c3)[nH]c12 [Example 337, N-({7-[(6-amino-9H-purin-9-yl)methyl]-5-chloro-1H-indol-2-yl}methyl)thieno[3,2-b]pyridine-6-carboxamide] |
| 10900 | COCCC(=O)NCc1cc2cc(Cl)cc(Cn3cnc4c(N)ncnc43)c2[nH]1 [Example 100, N-({7-[(6-amino-9H-purin-9-yl)methyl]-5-chloro-1H-indol-2-yl}methyl)-3-methoxypropanamide] |
